# Legend:
# morningglory = test: Test B pre/postemergence morningglory; assay type: in vivo, Ipomoea hederacea
# In short: (§1)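 Herbicidal effect was estimated by eye on a ten-point control scale after plants spent twelve to sixteen days in a greenhouse following soil or foliar treatment. Foliar sprays targeted plants at one to four leaves; all doses were formulated in a non-phytotoxic solvent with surfactant.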
# guineagrass = test: Test D guineagrass; assay type: in vivo, Panicum maximum; details: Preemergence, 0 to 100 scale
# In short: (§2)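 Seeds were sown in greenhouse pots, one species per pot or compartment. Compounds were in a non-phytotoxic solvent mixture with surfactant; preemergence applications went on the sandy loam surface within one day of planting. Injury was rated visually after 14 to 21 days, 0 (none) to 100 (complete control).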
# Green foxtail [1] = test: Test D green foxtail; assay type: in vivo
# In short: as §2
# pigweed = test: Test B pre/postemergence pigweed; assay type: in vivo, Amaranthus retroflexus
# In short: as §1
# Alexandergrass = test: Test D Alexandergrass; assay type: in vivo, Brachiaria plantaginea; details: Preemergence, 0 to 100 scale
# Excerpt: (§3) Seeds, tubers, or plant parts of Alexandergrass (Brachiaria plantaginea), bermuda-grass (Cynodon dactylon), common pursiane (Portulaca oleracea), common ragweed (Ambrosia elatior), common groundsel (Senecio vulgaris), dallisgrass (Paspalum dilatatum), goosegrass (Eleusine indica), guineagrass (Panicum maximum), itchgrass (Rottboellia exaltata), Johnson grass (Sorghum halepense), large crabgrass (Digitaria sanguinalis), pitted morningglory (Ipomoea lacunosa), purple nutsedge (Cyperus rotundus), sandbur (Cenchrus echinatus), sourgrass (Trichachne insularis), Spanishneedles (Bidens bipinnata), surinam grass (Brachiaria decumbens) and tall mallow (Malva sylvestris) were planted into greenhouse pots of flats containing greenhouse planting medium. Plant species were grown in separate pots or individual compartments. Preemergence applications were made within one day of planting the seed or plant part.
# (§4) Test chemicals were formulated in a non-phytotoxic solvent mixture which included a surfactant and applied preemergence to the surface of the pot containing seeds in a sandy loam soil. Untreated control pots and treated pots were placed in the greenhouse for growth and visually evaluated for injury 14 to 21 days after herbicide application. Plant response ratings, summarized in Table C, are based on a 0 to 100 scale where 0 is no injury and 100 is complete control. A dash (−) response means no test result.
# wild oat [2] = test: Test B pre/postemergence wild oat; assay type: in vivo, Avena fatua
# In short: as §1
# Spanishneedles = test: Test D Spanishneedles; assay type: in vivo, Bidens bipinnata; details: Preemergence, 0 to 100 scale
# Excerpt: as §3, §4
# tall mallow = test: Test D tall mallow; assay type: in vivo, Malva sylvestris; details: Preemergence, 0 to 100 scale
# Excerpt: as §3, §4
# blackgrass = test: Test E blackgrass; assay type: in vivo, Alopecurus myosuroides; details: Preemergence
# wild oat [3] = test: Test E wild oat; assay type: in vivo, Avena fatua; details: Preemergence
# Italian ryegrass = test: Test E Italian ryegrass; assay type: in vivo, Lolium multiflorum; details: Preemergence
# winter wheat [4] = test: Test E winter wheat; assay type: in vivo, Triticum aestivum; details: Preemergence
# winter wheat [5] = test: Test E winter wheat; assay type: in vivo, Triticum aestivum; details: Postemergence
# In short: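 Postemergence: 60:40 sandy loam/greenhouse potting mix, 1- to 4-leaf stage. Formulation: solvent plus surfactant. Assessment: visual comparison with untreated controls at ~21–28 days.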
# green foxtail [6] = test: Test E green foxtail; assay type: in vivo, Setaria viridis; details: Preemergence
# winter barley = test: Test E winter barley; assay type: in vivo, Hordeum vulgare; details: Preemergence
# [7] = Postemergence, Rate 62 g/ha, scale 0 to 10, 0 is no effect, 10 is complete control
# [8] = Postemergence, Rate 250 g/ha, scale 0 to 10, 0 no effect, 10 complete control
# [9] = Preemergence, Rate 62 g/ha, scale 0 to 10 (0 no effect, 10 complete control)
# [10] = Preemergence, Rate 125 g/ha, scale 0 to 10 (0 no effect, 10 complete control)
# [11] = Preemergence, Rate 250 g/ha, scale of 0 to 10 where 0 is no effect and 10 is complete control
# [12] = Preemergence, Rate 500 g/ha, scale 0 (no effect) to 10 (complete control)
# [13] = Rate 125 g/ha, Postemergence, scale 0 to 10, 0 no effect, 10 complete control
# [14] = Rate 500 g/ha, Postemergence, scale 0 to 10, 0 no effect, 10 complete control
# [15] = Rate 16 g/ha, 0 no injury, 100 complete control
# [16] = Rate 32 g/ha, 0 no injury, 100 complete control
# [17] = Rate 64 g/ha, 0 no injury, 100 complete control
# [18] = Rate 125 g/ha, 0 no injury, 100 complete control
# [19] = Rate 64 g/ha, Preemergence; 0 to 100 scale, 0 no injury, 100 complete control
# [20] = Rate 125 g/ha, Preemergence; 0 to 100 scale, 0 no injury, 100 complete control
# [21] = Postemergence, Rate 31 g/ha, visual rating, scale 0 to 10 (0 no effect, 10 complete control)
# [22] = Preemergence, Rate 31 g/ha, visual rating, scale 0 to 10 (0 no effect, 10 complete control)
# [23] = Preemergence, Rate 62 g/ha, scale of 0 to 10 where 0 is no effect and 10 is complete control
# [24] = Rate 16 g/ha, Postemergence, scale 0 to 10, 0 no effect, 10 complete control
# [25] = Rate 16 g/ha, Preemergence, scale 0 to 10, 0 no effect, 10 complete control
# [26] = Rate 62 g/ha, Postemergence, scale 0 to 10 (0 no effect, 10 complete control)
# [27] = Rate 125 g/ha, Postemergence, scale of 0 to 10 where 0 is no effect and 10 is complete control
# [28] = Rate 125 g/ha, Preemergence, scale of 0 to 10 where 0 is no effect and 10 is complete control
# [29] = Rate 500 g/ha, 0 to 100 scale (0 no effect, 100 complete control)
# [30] = Rate 1000 g/ha, 0 to 100 scale, 0 no effect, 100 complete control
smiles,measurement,setting,value
CC(C)N(C(=O)n1oc(=O)n(Cc2ccccc2)c1=O)c1ccc(F)cc1 [Compound 78],Morningglory plant response rating,morningglory; [7],7
same,Morningglory plant response rating,morningglory; [8],10
same,Morningglory plant response rating,morningglory; [9],0
same,"Plant response rating, Morningglory",morningglory; [10],0
same,"Plant response rating, Morningglory",morningglory; [11],0
same,Morningglory plant response rating,morningglory; [12],0
same,Morningglory plant response rating,morningglory; [13],8
same,Morningglory plant response rating,morningglory; [14],10
same,"Plant response rating, Guineagrass",guineagrass; [15],20
same,"Plant response rating, Guineagrass",guineagrass; [16],20
same,"Plant response rating, Guineagrass",guineagrass; [17],65
same,"Plant response rating, Guineagrass",guineagrass; [18],85
same,"Plant response rating, Guineagrass",guineagrass; Rate 250 g/ha,100
same,"Plant response rating, Guineagrass",guineagrass; Rate 500 g/ha,100
same,"Plant response rating, Green foxtail","Green foxtail [1]; Preemergence; Rate 16 g/ha; 0 to 100 scale, 0 no injury, 100 complete control",0
same,"Plant response rating, Green foxtail","Green foxtail [1]; Preemergence; Rate 32 g/ha; 0 to 100 scale, 0 no injury, 100 complete control",75
same,"Plant response rating, Green foxtail","Green foxtail [1]; Rate 16 g/ha; Preemergence; 0 to 100 scale, 0 no injury, 100 complete control",0
same,"Plant response rating, Green foxtail","Green foxtail [1]; Rate 32 g/ha; Preemergence; 0 to 100 scale, 0 no injury, 100 complete control",75
same,Green foxtail plant response rating,Green foxtail [1]; [19],85
same,"Plant response rating, Green foxtail",Green foxtail [1]; [19],85
same,Green foxtail plant response rating,Green foxtail [1]; [20],100
same,"Plant response rating, Green foxtail",Green foxtail [1]; [20],100
same,"Plant response rating, Green foxtail",Green foxtail [1]; Rate 250 g/ha; Preemergence; 0 to 100 scale,100
same,"Plant response rating, Green foxtail","Green foxtail [1]; Rate 500 g/ha, Preemergence; 0 to 100 scale",100
same,Redroot pigweed plant response rating,pigweed; [7],2
same,Redroot pigweed plant response rating,pigweed; [8],3
same,Redroot pigweed plant response rating,pigweed; [9],0
same,"Plant response rating, Redroot pigweed",pigweed; [10],0
same,"Plant response rating, Redroot pigweed",pigweed; [11],6
same,Redroot pigweed plant response rating,pigweed; [12],6
same,Redroot pigweed plant response rating,pigweed; [13],3
same,Redroot pigweed plant response rating,pigweed; [14],6
same,"Plant response rating, Alexandergrass",Alexandergrass; [15],0
same,"Plant response rating, Alexandergrass",Alexandergrass; [16],0
same,"Plant response rating, Alexandergrass",Alexandergrass; [17],30
same,"Plant response rating, Alexandergrass",Alexandergrass; [18],75
same,"Plant response rating, Alexandergrass",Alexandergrass; Rate 250 g/ha,75
same,"Plant response rating, Alexandergrass",Alexandergrass; Rate 500 g/ha,100
same,Wild oats plant response rating,wild oat [2]; [7],0
same,Wild oats plant response rating,wild oat [2]; [8],0
same,Wild oats plant response rating,wild oat [2]; [9],0
same,"Plant response rating, Wild oats",wild oat [2]; [10],2
same,"Plant response rating, Wild oats",wild oat [2]; [11],6
same,Wild oats plant response rating,wild oat [2]; [12],6
same,Wild oats plant response rating,wild oat [2]; [13],0
same,Wild oats plant response rating,wild oat [2]; [14],2
same,"Plant response rating, Spanishneedles",Spanishneedles; [15],0
same,"Plant response rating, Spanishneedles",Spanishneedles; [16],0
same,Spanishneedles plant response rating,Spanishneedles; [17],0
same,Spanishneedles plant response rating,Spanishneedles; [18],0
same,"Plant response rating, Spanishneedles",Spanishneedles; Rate 500 g/ha,0
same,"Plant response rating, Tall Mallow",tall mallow; [15],0
same,"Plant response rating, Tall Mallow",tall mallow; [16],0
same,Tall Mallow plant response rating,tall mallow; [17],0
same,Tall Mallow plant response rating,tall mallow; [18],0
same,"Plant response rating, Tall Mallow",tall mallow; Rate 250 g/ha,0
same,"Plant response rating, Tall Mallow",tall mallow; Rate 500 g/ha,0
CCCCCn1c(=O)on(C(=O)N(c2ccc(F)cc2)C(C)C)c1=O [Compound 290],Morningglory plant response rating,morningglory; [21],4
same,Morningglory plant response rating,morningglory; [22],0
same,Morningglory plant response rating,morningglory; [23],0
same,Morningglory plant response rating,morningglory; [24],3
same,Morningglory plant response rating,morningglory; [25],0
same,Morningglory plant response rating,morningglory; [26],4
same,Morningglory plant response rating,morningglory; [27],6
same,Morningglory plant response rating,morningglory; [28],0
same,Blackgrass plant response rating (0 to 100 scale),blackgrass; Rate 250 g/ha,60
same,"Plant response rating, Blackgrass",blackgrass; [29],70
same,"Plant response rating, Blackgrass",blackgrass; [30],95
same,Wild oat plant response rating (0 to 100 scale),wild oat [3]; Rate 250 g/ha,60
same,"Plant response rating, Wild oat",wild oat [3]; [29],70
same,"Plant response rating, Wild oat",wild oat [3]; [30],70
same,Redroot pigweed plant response rating,pigweed; [21],0
same,Redroot pigweed plant response rating,pigweed; [22],0
same,Redroot pigweed plant response rating,pigweed; [23],2
same,Redroot pigweed plant response rating,pigweed; [24],0
same,Redroot pigweed plant response rating,pigweed; [25],0
same,Redroot pigweed plant response rating,pigweed; [26],0
same,Redroot pigweed plant response rating,pigweed; [27],0
same,Redroot pigweed plant response rating,pigweed; [28],7
same,I. Ryegrass plant response rating (0 to 100 scale),Italian ryegrass; Rate 250 g/ha,60
same,"Plant response rating, I. Ryegrass",Italian ryegrass; [29],70
same,"Plant response rating, I. Ryegrass",Italian ryegrass; [30],90
same,Wheat (winter) plant response rating (0 to 100 scale),winter wheat [4]; Rate 250 g/ha,10
same,"Plant response rating, Wheat (winter)",winter wheat [4]; [29],30
same,"Plant response rating, Wheat (winter)",winter wheat [4]; [30],50
same,Wild oats plant response rating,wild oat [2]; [21],0
same,Wild oats plant response rating,wild oat [2]; [22],0
same,Wild oats plant response rating,wild oat [2]; [23],0
same,Wild oats plant response rating,wild oat [2]; [24],0
same,Wild oats plant response rating,wild oat [2]; [25],0
same,Wild oats plant response rating,wild oat [2]; [26],0
same,Wild oats plant response rating,wild oat [2]; [27],0
same,"Plant response rating, Wheat (winter)","winter wheat [5]; Rate 1000 g/ha, 0 to 100 scale where 0 is no effect and 100 is complete control",70
same,Wheat (winter) plant response rating,"winter wheat [5]; Rate 250 g/ha, 0 to 100 scale where 0 is no effect and 100 is complete control",50
same,"Plant response rating, Wheat (winter)","winter wheat [5]; Rate 500 g/ha, 0 to 100 scale, 0 is no effect, 100 is complete control",60
same,Green foxtail plant response rating (0 to 100 scale),green foxtail [6]; Rate 250 g/ha,65
same,"Plant response rating, Green foxtail",green foxtail [6]; [29],70
same,"Plant response rating, Green foxtail",green foxtail [6]; [30],85
same,Barley (winter) plant response rating (0 to 100 scale),winter barley; Rate 250 g/ha,55
same,"Plant response rating, Barley (winter)",winter barley; [29],60
same,"Plant response rating, Barley (winter)",winter barley; [30],70

# — patent US6737383B1, “Herbicidal oxadiazolidines” (priority 1999, dated 2004)
